Source: patent US10961245B2, “Substituted heterocycle fused gamma-carbolines for treatment of central nervous system disorders” (INTRA-CELLULAR THERAPIES, INC., priority 2016, dated 2021)
pIC50: −log10 of the molar value.

Columns and labels:
μ(MOP) (h) receptor = molecular target: T1, μ(MOP) (h) receptor (Homo sapiens, UniProt P35372); assay: Cellular functional assay, μ (MOP) (h) antagonist effect (cAMP, HTRF); assay type: cell-based
T1 construct: expressed in transfected cells; host or cells: CHO cells
T1 sequence (P35372 whole entry): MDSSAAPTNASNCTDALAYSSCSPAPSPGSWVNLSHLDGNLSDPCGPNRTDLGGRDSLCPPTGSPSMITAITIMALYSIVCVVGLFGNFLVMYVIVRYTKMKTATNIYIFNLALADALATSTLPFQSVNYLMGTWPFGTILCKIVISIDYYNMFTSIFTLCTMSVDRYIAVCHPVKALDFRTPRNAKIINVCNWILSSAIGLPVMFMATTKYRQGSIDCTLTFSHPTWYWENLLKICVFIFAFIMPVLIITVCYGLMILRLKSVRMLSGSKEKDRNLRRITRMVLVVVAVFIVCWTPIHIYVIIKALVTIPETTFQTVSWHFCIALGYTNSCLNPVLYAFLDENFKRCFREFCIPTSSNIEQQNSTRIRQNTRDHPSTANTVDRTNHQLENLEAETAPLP
Experimental: Cellular and Nuclear Receptor Functional Assays are performed on the compounds of Formula II-B and according to the procedure of Wang, J. B. et al. (1994), FEBS Lett., 338:217-222. The compounds are tested at several concentrations to determine their IC50 or EC50.
Cellular agonist effects are calculated as percent of control response to a known reference agonist for each target and cellular antagonist effect is calculated as a percent inhibition of control reference agonist response for each target.
The following assay is performed to determine the effect of the Compound of Formula on the μ(MOP) (h) receptor: […]
The results are expressed as a percent of control agonist response: […]
and as a percent inhibition of control agonist response:
The EC50 values (concentration producing a half-maximal response) and IC50 values (concentration causing a half-maximal inhibition of the control agonist response) are determined by non-linear regression analysis of the concentration-response curves generated with mean replicate values using Hill equation curve fitting:
[formula] where Y=response, A=left asymptote of the curve, D=right asymptote of the curve, C=compound concentration, and C50=EC50 or IC50, and nH=slope factor. The analysis is performed using software developed in-house and validated by comparison with data generated by the commercial software SigmaPlot® 4.0 for Windows® (© 1997 by SPSS Inc.).
For the antagonists, the apparent dissociation constants (KB) are calculated using the modified Cheng Prusoff equation:
[formula] where A=concentration of reference agonist in the assay, and EC50A=EC50 value of the reference agonist.

5-HT2A = 5-HT2A (Homo sapiens, UniProt P28223); assay: Receptor binding 5-HT2A; settings: read-out: Ki (nM) or maximum inhibition
Chain of 5-HT2A (P28223 whole entry): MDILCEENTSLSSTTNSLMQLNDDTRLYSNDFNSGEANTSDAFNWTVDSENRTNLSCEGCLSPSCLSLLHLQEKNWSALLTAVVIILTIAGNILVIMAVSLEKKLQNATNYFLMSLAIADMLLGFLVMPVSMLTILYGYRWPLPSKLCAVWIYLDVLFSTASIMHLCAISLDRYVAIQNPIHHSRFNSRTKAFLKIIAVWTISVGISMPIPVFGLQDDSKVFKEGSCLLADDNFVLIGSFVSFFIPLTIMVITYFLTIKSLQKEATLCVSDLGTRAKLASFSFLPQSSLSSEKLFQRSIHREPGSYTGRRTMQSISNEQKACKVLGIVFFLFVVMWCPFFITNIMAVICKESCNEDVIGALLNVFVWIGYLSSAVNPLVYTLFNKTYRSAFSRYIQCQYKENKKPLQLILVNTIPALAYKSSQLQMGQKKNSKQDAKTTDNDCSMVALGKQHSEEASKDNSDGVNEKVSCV
Experimental: (§1) Receptor binding is determined for the Compounds of Formulas II-A and II-B using the tosylate salt of the compound of Formula A as a control. The following literature procedures are used, each of which reference is incorporated herein by reference in their entireties:
(§2) In general, the results are expressed as a percent of control specific binding:
(§3) [formula] and as a percent inhibition of control specific binding: […]
(§4) The IC50 values (concentration causing a half-maximal inhibition of control specific binding) and Hill coefficients (nH) are determined by non-linear regression analysis of the competition curves generated with mean replicate values using Hill equation curve fitting:
(§5) [formula] where Y=specific binding, A=left asymptote of the curve, D=right asymptote of the curve, C=compound concentration, C50=IC50, and nH=slope factor. This analysis was performed using in-house software and validated by comparison with data generated by the commercial software SigmaPlot® 4.0 for Windows® (© 1997 by SPSS Inc.). The inhibition constants (Ki) were calculated using the Cheng Prusoff equation:
(§6) [formula] where L=concentration of radioligand in the assay, and KD=affinity of the radioligand for the receptor. A Scatchard plot is used to determine the KD.

Mu opiate receptor = Mu opiate receptor (Homo sapiens, UniProt P35372); assay: Receptor binding Mu opiate receptor; settings: read-out: Ki (nM) or maximum inhibition
Chain of Mu opiate receptor (P35372 whole entry): as the sequence (P35372 whole entry) above
Experimental: as §1
Mu opiate receptor: Wang, J. B. et al. (1994), FEBS Lett., 338:217-222.
as §2, §3, §4, §5, §6

D1 = D1 (Homo sapiens, UniProt P21728); assay: Receptor binding D1; settings: read-out: Ki (nM) or maximum inhibition
Chain of D1 (P21728 whole entry): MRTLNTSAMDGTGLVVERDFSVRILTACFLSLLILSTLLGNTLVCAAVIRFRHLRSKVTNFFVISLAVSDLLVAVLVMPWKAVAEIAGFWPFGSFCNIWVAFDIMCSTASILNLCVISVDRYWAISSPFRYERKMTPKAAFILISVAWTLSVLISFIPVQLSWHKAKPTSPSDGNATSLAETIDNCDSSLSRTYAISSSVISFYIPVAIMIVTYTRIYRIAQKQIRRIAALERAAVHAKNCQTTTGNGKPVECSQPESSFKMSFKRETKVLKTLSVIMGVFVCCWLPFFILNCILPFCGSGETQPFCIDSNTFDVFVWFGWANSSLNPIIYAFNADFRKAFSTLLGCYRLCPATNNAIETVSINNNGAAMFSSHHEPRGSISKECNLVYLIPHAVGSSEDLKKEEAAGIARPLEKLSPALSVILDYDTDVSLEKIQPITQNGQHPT
Experimental: as §1, §2, §3, §4, §5, §6

SERT = SERT (Homo sapiens, UniProt P31645); assay: Receptor binding SERT; settings: read-out: Ki (nM) or maximum inhibition
Chain of SERT (P31645 whole entry, species assumed): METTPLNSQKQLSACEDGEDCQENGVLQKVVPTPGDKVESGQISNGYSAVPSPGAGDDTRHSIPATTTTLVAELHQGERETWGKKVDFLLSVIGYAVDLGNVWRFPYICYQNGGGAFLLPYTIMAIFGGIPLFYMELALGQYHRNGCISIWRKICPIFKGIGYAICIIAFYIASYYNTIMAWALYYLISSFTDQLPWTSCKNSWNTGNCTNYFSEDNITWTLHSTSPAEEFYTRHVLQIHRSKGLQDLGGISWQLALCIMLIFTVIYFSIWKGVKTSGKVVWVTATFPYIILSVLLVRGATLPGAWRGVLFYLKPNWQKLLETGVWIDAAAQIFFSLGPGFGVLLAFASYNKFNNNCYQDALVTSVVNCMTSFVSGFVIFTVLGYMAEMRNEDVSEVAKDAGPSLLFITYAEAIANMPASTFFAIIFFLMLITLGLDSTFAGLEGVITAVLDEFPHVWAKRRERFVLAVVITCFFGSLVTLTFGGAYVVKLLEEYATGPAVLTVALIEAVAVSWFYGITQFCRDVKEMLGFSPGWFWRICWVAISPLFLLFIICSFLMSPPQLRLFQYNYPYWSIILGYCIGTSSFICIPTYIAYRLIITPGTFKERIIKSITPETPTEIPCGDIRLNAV
Experimental: as §1
SERT: Park, Y. M. et al. (1999), Anal. Biochem., 269:94-104.
as §2, §3, §4, §5, §6

Compound	pIC50 (μ(MOP) (h) receptor; human recombinant CHO cells, DAMGO (20 nM) stimulus, cAMP)	Kb (μ(MOP) (h) receptor; modified Cheng Prusoff equation, DAMGO (20 nM), read-out: μ(MOP) (h) (antagonist effect) KB (apparent dissociation constant)) [nM]	Ki (5-HT2A) [nM]	Ki (Mu opiate receptor) [nM]	Ki (D1) [nM]	pIC50 (μ(MOP) (h) receptor; unit inferred, highest concentration tested)	inhibition at 1 µM (SERT) [%]
CN1C(=O)CN2c3c(cccc31)[C@@H]1CN(CCCC(=O)c3ccncc3)CC[C@@H]12 [Formula II-B]	5.89	140					
O=C1CN2c3c(cccc3[C@@H]3CN(CCCC(=O)c4ccncc4)CC[C@@H]32)N1 [Formula II-C]			37	400	470	< 5.00	40
